Measured values taken from patent US9504676B2, “Molecules inhibiting a metabolic pathway involving the Syk protein tyrosine kinase and method for identifying said molecules” (CENTRE NATIONAL DE LA RECHERCHE SCIENTIFIQUE, priority 2008, dated 2016).

Tested on: BMMC cells
Assay: C-13 toxicity test on BMMC cells (Annexin-V and Propidium Iodide)
Assay type: cell-based
Settings: mouse
Description: FIG. 10. Toxicity test of C-13 on BMMC cells. The BMMC cells were incubated at 37° C. in the presence of 2.5 μM or 5 μM of C-13, 0.25% DMF or Staurosporine. The percentages of live BMMC cells after 3 hours and after 5 days were detected by means of double Annexin-V and Propidium Iodide labelling. The viability of BMMC cells incubated in the presence of 2.5 μM or 5 μM of C-13 or 0.25% DMF was not affected to noteworthy degree after 3 hours (78%, 74% and 79% respectively) or five days (62, 56 and 57%, respectively). On the other hand, the viability of BMMC cells treated under the same conditions with Staurosporine was reduced to a level of 16% after only 3 hours.
• 1) Chemical products and antibodies. A chemical bank of 3000 molecules (a varied subset) was acquired from ChemBridge, Inc. (San Diego, Calif.). Stocks of solutions of small molecules were prepared at a rate of 10 mM in DMSO (dimethylsulphoxide), except for C-13 (methyl 2-{5-[(3-benzyl-4-oxo-2-thioxo-1,3-thiazolidin-5-ylidene)methyl]-2-furyl}benzoate, ChemBridge ID No. 6197026) prepared in DMF (dimethylformamide). Unless specified otherwise, all the reagents were supplied by Sigma. Dinitrophenyl (DNP) hapten was acquired from Calbiochem. Sepharose GammaBind G and all the secondary antibodies were supplied by GE Health Amersham Biosciences. The anti-Syk, anti-Lyn, anti-Btk, anti-PLC-γ1, anti-PLC-γ2, anti-LAT, anti-SLP-76, anti-p38, anti-JNK, anti-Vav, anti-Akt1 and 9E10 antibodies conjugated with HRP were acquired from Santa Cruz Biotechnology. The anti-phospho-p44/42 MAP Kinase, anti-p44/42 MAP Kinase, anti-phospho-p38, anti-phospho-JNK, anti-phospho-Akt1 antibodies were acquired from Cell Signaling. The anti-phospho-LAT and anti-phospho-PLC-γ1 antibodies were supplied by Biosource and the anti-phospho-SLP-76 antibodies by BD Pharmingen. The 4G10 anti-phosphotyrosine monoclonal antibody was acquired from Upstate Biotechnology. • 2) ADA method: ELISA type high-speed molecule screening test, based on antibody displacement (WO 2005106481). The recombinant fusion protein GST:Syk 6-242^8 comprising the residues 6 to 242 of murine Syk tyrosine kinase protein illustrated in FIG. 8B (SEQ ID No. 4) was immobilised on an ELISA plate at a final concentration of 10 μg ml^−1. For the screening of the chemical molecule bank, the small molecules, diluted in PBS at a final concentration of 10 μM were added to the wells for one hour at ambient temperature, before adding the fragment scFv G4G11 at a final concentration of 100 nM for an additional hour. The binding of G4G11 with Syk was assessed by adding the 9E10 monoclonal antibody conjugated with HRP detecting the amino acid sequence EQKLISEEDLN of human c-myc protein located at the C-terminal end of the scFv fragment. To generate Syk mutants, targeted mutagenesis was used on GST:Syk 6-242 protein and the binding of G4G11 with the mutants was assessed in the presence of 5 μM of C-13. • 3) Cells, culture conditions and functional tests. Anti-DNP 2682-I mouse monoclonal antibody was used as the culture supernatant of hybridomas containing 1 μg/ml of IgE. Femoral bone marrow cells were sampled and cultured in Opti-MEM medium (Gibco) supplemented with 10% foetal calf serum and 4% X63 transfectant supernatant secreting murine IL-3. RBL-2H3 (ATCC) leukaemic rat basophil cells were maintained in a single-layer culture in RPMI 1640 medium supplemented with 10% foetal calf serum (Gibco). […]

In the case of COC(=O)c1ccccc1-c1ccc(/C=C2/SC(=S)N(Cc3ccccc3)C2=O)o1 [Molecule C-13, methyl 2-{5-[(3-benzyl-4-oxo-2-thioxo-1,3-thiazolidin-5-ylidene)methyl]-2-furyl}benzoate], the “percentage of live BMMC cells” value (3 h, 2.5 μM) was 78%, the “percentage of live BMMC cells” value (3 h, 5 μM) was 74% and the “percentage of live BMMC cells” value (5 days, 2.5 μM) was 62%. For the same compound, the “percentage of live BMMC cells” value (5 days, 5 μM) was 56%.
